These results are taken from patent publication US20040259142A1, “Products and methods” (Imperial College Innovations Limited, priority 2003, published 2004).

One assay deals with T1, interferon γ (IFN-γ) (Homo sapiens, UniProt P01579).
T1 construct: purchased Sigma; host or cells: Escherichia coli
T1 sequence (P01579 24-166): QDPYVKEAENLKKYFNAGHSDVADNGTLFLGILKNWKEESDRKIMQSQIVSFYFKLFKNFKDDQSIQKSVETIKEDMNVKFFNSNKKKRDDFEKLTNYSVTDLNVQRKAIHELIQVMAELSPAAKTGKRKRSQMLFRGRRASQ
As to the kind of experiment: interferon γ binding to lipid-linked oligosaccharide array on nitrocellulose. From the text:
(§1) The lipid-linked oligosaccharides (in chloroform:methanol:water, 25:25:8 v/v) were applied by jet spray with a sample applicator (Linomat IV, Camag, Switzerland) as 2 mm bands for ‘miniarray’, or as […] spots for ‘microarray’ format, onto 0.45 μm nitrocellulose or 0.2 μm PVDF membranes (both from Bio-Rad, Hemel Hempstead, UK), or aluminium-backed silica gel plates (Merck). When fluorescent NGLs were applied onto the membranes, and examined directly under UV light, 1-2 pmol was clearly visible above the background on the PVDF, whereas on nitrocellulose, 5 pmol was required due to a high fluorescent background. For detection, therefore, the fluorescent NGLs were printed onto PVDF membranes; the non-fluorescent lipid-linked oligosaccharides were printed onto silica gel plates and detected with primulin stain.
(§2) For cytokine/chemokine-binding experiments, the membranes were blocked for 1 h with 3% (w/v) BSA in 10 mM Tris-HCl buffer containing 150 mM NaCl, 2 mM CaCl2 and 0.8 mM MgCl2 (TNCM), overlaid with INFγ or RANTES at 1 μg per ml diluted in TNCM/BSA, incubated for 16 h at 4° C.
(§3) The membranes were washed four times, for 30 min with 10 mM Tris-HCl buffer containing 20 mM NaCl, 5 mM CaCl2 and 2 mM MgCl2 (TNCM-L) to minimize elution of the bound proteins^31. […] Carbohydrate-binding experiments with NGLs resolved by TLC were performed as described^12.

For a further assay, the target named is T2, chemokine RANTES (Homo sapiens, UniProt P13501).
T2 construct: purchased R&D systems; host or cells: Escherichia coli
T2 sequence (P13501 24-91): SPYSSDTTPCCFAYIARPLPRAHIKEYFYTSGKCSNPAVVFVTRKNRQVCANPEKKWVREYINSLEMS
The assay is described as follows: RANTES binding to lipid-linked oligosaccharide array on nitrocellulose. The settings on record: array IDs 1-30 at 10 pmol per spot.
Text: as §1, §2, §3

A further assay has as its system monoclonal antibody C-14. The assay is described as follows: C-14 antibody binding to lipid-linked oligosaccharide array on nitrocellulose. Set-up: species or system murine. The settings on record: array IDs 1-30 on nitrocellulose, 10 pmol per spot.
Text: as §1
(§4) Experiments were carried out at ambient temperature unless stated otherwise. The dilutions of the antibodies used were those recommended by the manufacturers or providers. Concentrations where known are indicated. For antibody-binding experiments, the membranes were ‘blocked’ for 1 h with 3% (w/v) bovine serum albumin (BSA) in phosphate buffered saline (10 mM phosphate buffer containing 150 mM NaCl) pH 7.4 (PBS), and overlaid with for 2 h with the antibodies diluted in phosphate buffered saline containing 3% BSA (PBS/BSA). […]

For assay [1], the target named is T3, recombinant soluble L-selectin IgG chimera (Homo sapiens, UniProt P14151).
T3 construct: recombinant soluble L-selectin IgG chimera; made in house; host or cells: transfected Chinese hamster ovary cells (provided by Dr Gray Shaw, Genetics Institute)
T3 sequence (P14151 39-332 limits assumed): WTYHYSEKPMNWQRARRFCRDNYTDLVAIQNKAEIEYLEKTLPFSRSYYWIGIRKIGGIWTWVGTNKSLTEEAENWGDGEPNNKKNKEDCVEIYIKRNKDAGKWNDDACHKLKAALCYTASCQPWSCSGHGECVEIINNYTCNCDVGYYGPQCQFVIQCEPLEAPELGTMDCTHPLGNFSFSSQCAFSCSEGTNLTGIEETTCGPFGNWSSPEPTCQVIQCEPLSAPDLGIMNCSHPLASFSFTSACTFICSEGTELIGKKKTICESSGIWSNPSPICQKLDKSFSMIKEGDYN
As to the kind of experiment: L-selectin binding to lipid-linked oligosaccharide array on nitrocellulose. The settings on record: array IDs 1-30 on nitrocellulose, 10 pmol per spot.
Text: as §1
Selectin-binding experiments were carried out as above except that the membranes were ‘blocked’ 1% (w/v) casein in 10 mM Tris-HCl buffer pH 7.4 containing 50 mM CaCl2 and 150 mM NaCl (TBS/Ca) and overlaid for 2 h with L-selectin (1 μg/ml pre-complexed^42 with biotinylated anti-human IgG from Vector), or E-selectin (at 1 μg/ml) in TBS/Ca. Binding of L-selectin was detected by overlaying with HRP-conjugated streptavidin (Sigma), 10 μg/ml, in TBS/Ca containing 1% casein. Binding of E-selectin was detected by overlaying with biotinylated anti-human IgM (Sigma), 5 μg/ml, followed by the HRP-conjugated streptavidin.

The subject of assay [2] is monoclonal antibody HNK-1 (anti-HNK-1). As to the kind of experiment: anti-HNK-1 binding to lipid-linked oligosaccharide arrays on nitrocellulose. The settings on record: array IDs 1-30 on nitrocellulose, 10 pmol per spot.
Text: as §1, §4

A further assay has as its target TSG-6 (Homo sapiens, UniProt P98066). As to the kind of experiment: TSG-6 binding to HA and HA NGL on nitrocellulose-coated FastSlide. The settings on record: 2 mm bands on FastSlide, DAB colour, FIG. 9. From the text:
NGL samples in organic-based solvent mixture (chloroform/methanol/water 25:25:8, by vol), and also polysaccharides, glycosaminoglycans (GAGs) and glycoproteins in water, were arrayed with N2-assisted jet spray as 1-2 mm bands or 150 μm spots.
Binding to the arrayed samples was detected using biotinylated antibodies directed to the proteins being investigated, followed by conventional ELISA-DAB colour reaction or by using CyS-labelled streptavidin.
Similarly, different amounts of hyaluronic acid polysaccharide (HA) (5 to 500 ng) and its oligosaccharide derived NGL, HA 8mer-DHPE (0.05 to 5 pmol), were applied as 2 mm bands onto a nitrocellulose coated FastSlide. The interactions of TSG-6 (a protein which can bind to the HA) with the carbohydrate-containing molecules on the support material, HA and the HA NGL, are shown in FIG. 9.

Assay [3] deals with anti-SSEA-1 monoclonal antibody. As to the kind of experiment: anti-SSEA-1 binding to lipid-linked oligosaccharide arrays on membranes. The arrangement: species or system murine. The settings on record: array IDs 1-30 on nitrocellulose, 10 pmol per spot.
Text: as §1, §4

Assay [4] has as its system anti-L5 monoclonal antibody. The assay is described as follows: anti-L5 binding to lipid-linked oligosaccharide arrays on nitrocellulose. The settings on record: array IDs 1-30 on nitrocellulose, 10 pmol per spot. The arrangement: species or system rat.
Text: as §1, §4

Setting [5] is: array IDs 1-30 printed at 1 pmol per spot.
[6] abbreviates: array IDs 1-30 at 10 pmol per spot.

TSG-6, sequence (P98066 18-277, species assumed): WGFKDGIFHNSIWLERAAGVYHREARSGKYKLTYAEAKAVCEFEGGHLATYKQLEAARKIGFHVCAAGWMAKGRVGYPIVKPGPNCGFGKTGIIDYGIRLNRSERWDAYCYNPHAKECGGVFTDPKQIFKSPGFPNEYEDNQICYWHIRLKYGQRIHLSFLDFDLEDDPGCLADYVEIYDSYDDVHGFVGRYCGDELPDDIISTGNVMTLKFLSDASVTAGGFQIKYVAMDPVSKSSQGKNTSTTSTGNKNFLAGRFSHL

For 3′,6-SU-Le^x-5 [ID 17], the IFN-γ binding entry at interferon γ (IFN-γ) (setting [5]) is “weak binding”. 3′-SU-Le^x-5 [ID 16]: the IFN-γ binding result at interferon γ (IFN-γ) (setting [5]) was “weak binding”. With 6′-SU-3′-SA-Le^x5 [ID 19], the IFN-γ binding result on interferon γ (IFN-γ) (setting [6]) was “additional or increased binding signals”. Moreover, the RANTES binding entry on chemokine RANTES was “additional or increased binding signals”. As for `CC(=O)NC1C(OC2C(O)C(CO)OC(OC3C(CO)OC(O)C(O)C3O)C2O)OC(CO)C(OC2OC(CO)C(O)C(O)C2OC2OC(C)C(O)C(O)C2O)C1OC1OC(C)C(O)C(O)C1O` (stereo not shown) [ID 12, lacto-N-neo-difucohexaose I], the “binding of C-14 antibody” value in the assay with monoclonal antibody C-14 is “bound”. Regarding `CC(=O)NC1C(O)CC(OC2C(O)C(CO)OC(OC3C(CO)OC(OC4C(O)C(CO)OC(OC5C(CO)OC(O)C(O)C5O)C4O)C(NC(C)=O)C3OC3OC(C)C(O)C(O)C3O)C2O)(C(=O)O)OC1C(O)C(O)CO` (stereo not shown) [ID 14, 3′-SA-Le^x-5], in assay [1], the L-selectin binding entry is “weak”. Regarding `O=C(O)C1=C[C@H](O)[C@@H](OS(=O)(=O)O)[C@H](O[C@H]2[C@H](O)[C@@H](NS(=O)(=O)O)[C@@H](O)O[C@@H]2COS(=O)(=O)O)O1` [ID 28, HS/HEP 2mer], the L-selectin binding entry in assay [1] is “binding”. For the same compound, the IFN-γ binding result at interferon γ (IFN-γ) (setting [5]) is “clear preference”. For HNK-1 [ID 20], the “binding of anti-HNK-1” value in assay [2] is “bound”. The L-selectin binding result in assay [1] was “binding”. Further, the IFN-γ binding result at interferon γ (IFN-γ) (setting [6]) was “additional or increased binding signals”. The RANTES binding entry at chemokine RANTES is “additional or increased binding signals”. Regarding Man5-phosphate [ID 21], the L-selectin binding entry in assay [1] is listed as “binding”. On to hyaluronic acid [HA polysaccharide], for which the “sensitivity of detection of TSG-6 binding” value on TSG-6 is given as “nanograms”.

As for lacto-N-fucopentaose III [ID 10], the “binding of anti-SSEA-1” value in assay [3] is “bound”. In assay [4], the “binding of anti-L5” value is listed as “bound”.
